# Measured values: US20060079453A1, “Hla binding peptides and their uses” (priority 2002, published 2006)
# Read-outs that look alike come from different tables or passages of the source. No end group written: not given here.
# Assays:
# Test in all cases: biochemical
# Type in all cases: binding
# HLA-A*0206 = HLA-A*0206 (Homo sapiens, UniProt P04439, D140Y/D185E/D98H/E176V/E277Q/F33Y/G131W/G231S/I119V/I121R/I166T/I218V/L300P/L318F/N151K/N90K/P208A/P217A/Q86G/Q94H/R138H/R169H/T345S)
# HLA-A*0202 = HLA-A*0202 (Homo sapiens, UniProt P04439, D140Y/D185E/D98H/E176V/E277Q/G131W/G231S/I119L/I121R/I166T/I218V/L180W/L300P/L318F/N151K/N90K/P208A/P217A/Q67R/Q86G/Q94H/R138H/R169H/T345S)
# HLA-A*6802 = HLA-A*6802 (Homo sapiens, UniProt P04439, A269V/D140Y/D185E/E176V/E277Q/E87N/F33Y/G231S/I121R/I166T/I218V/L180W/L300P/L318F/N151K/P208A/P217A/Q86R/R138H/R169H/S129P/T345S/V36M)
# HLA-A*0203 = HLA-A*0203 (Homo sapiens, UniProt P04439, A173T/D140Y/D185E/D98H/E277Q/G131W/G231S/I119V/I121R/I166T/I218V/L180W/L300P/L318F/N151K/N90K/P208A/P217A/Q86G/Q94H/R138H/R169H/T345S)
# HLA-A*0201 = HLA-A*0201 (Homo sapiens, UniProt P04439, D140Y/D185E/D98H/E176V/E277Q/G131W/G231S/I119V/I121R/I166T/I218V/L300P/L318F/N151K/N90K/P208A/P217A/Q86G/Q94H/R138H/R169H/T345S)
# [1] = A*0206 binding affinity (expressed as an IC50)
# [2] = A*0202 binding affinity (expressed as an IC50)
# [3] = A*6802 binding affinity (expressed as an IC50)
# [4] = A*0203 binding affinity (expressed as an IC50)
# [5] = A*0201 binding affinity (expressed as an IC50)
Compound,IC50 (HLA-A*0206; [1]),IC50 (HLA-A*0202; [2]),IC50 (HLA-A*6802; [3]),IC50 (HLA-A*0203; [4]),IC50 (HLA-A*0201; [5]),IC50 (HLA-A*0206),IC50 (HLA-A*0202),IC50 (HLA-A*6802),IC50 (HLA-A*0203),IC50 (HLA-A*0201)
CC(C)C[C@H](NC(=O)[C@H](CCCNC(=N)N)NC(=O)[C@H](CC(C)C)NC(=O)[C@@H](NC(=O)[C@H](C)NC(=O)[C@@H](NC(=O)CNC(=O)[C@H](CC(=O)O)NC(=O)[C@H](CC(C)C)NC(=O)[C@@H](N)CC(C)C)[C@@H](C)O)[C@@H](C)O)C(=O)O,0.841 µM,0.0019 µM,> 421 µM,0.201 µM,0.18 µM,,,,,
ATYGIIVPV,0.005 µM,0.002 µM,0.021 µM,0.0028 µM,0.0032 µM,,,,,
EILDLWVYHV,,,,,,2.23 µM,0.569 µM,0.163 µM,1.87 µM,0.496 µM
ELVSEFSRV,0.197 µM,0.969 µM,0.023 µM,0.053 µM,8.18 µM,,,,,
FAPGFFPYL,0.0023 µM,0.00085 µM,0.0076 µM,0.044 µM,0.048 µM,,,,,
FLKEKGGLDGV,,,,,,3.21 µM,0.0037 µM,3.81 µM,0.011 µM,0.332 µM
FLPGPGPGSV,0.665 µM,0.018 µM,0.332 µM,0.004 µM,0.098 µM,,,,,
FLPSGPGPGV,0.064 µM,0.0012 µM,0.04 µM,0.0034 µM,0.021 µM,,,,,
FMGVIYIMI,0.098 µM,0.0021 µM,14.5 µM,0.026 µM,0.013 µM,,,,,
GLGAVSRDL,,,,,,> 10.4 µM,0.436 µM,> 16.7 µM,1.73 µM,18.7 µM
GLIYSKKRQEV,,,,,,> 8.56 µM,0.057 µM,> 14.3 µM,0.152 µM,8.97 µM
GVLGWSPQV,,,,,,0.028 µM,0.157 µM,9.43 µM,0.389 µM,0.022 µM
IISAVVGFL,0.234 µM,0.001 µM,0.077 µM,0.0048 µM,0.747 µM,,,,,
IISAVVGIV,0.958 µM,0.015 µM,0.39 µM,0.02 µM,0.712 µM,,,,,
ILAEAMSQA,,,,,,0.0086 µM,0.001 µM,0.253 µM,0.0011 µM,0.029 µM
ILWQVDRM,,,,,,11.3 µM,0.067 µM,> 19.5 µM,3 µM,1.75 µM
KISAVVGIL,1.75 µM,0.042 µM,4.95 µM,0.06 µM,6.24 µM,,,,,
KITPLCVTL,0.059 µM,0.036 µM,0.883 µM,0.528 µM,0.461 µM,,,,,
KLTPFCVTL,,,,,,0.078 µM,0.00037 µM,11.8 µM,0.028 µM,0.087 µM
KLTPLCVSL,0.016 µM,0.0024 µM,5.95 µM,0.24 µM,0.067 µM,,,,,
LIFHFFLFLL,1.56 µM,1.47 µM,0.46 µM,3.17 µM,0.2 µM,,,,,
LLGPGPGV,0.093 µM,0.049 µM,5.62 µM,0.123 µM,0.025 µM,,,,,
LLLPPLERLTL,,,,,,0.045 µM,2.61 µM,> 12.8 µM,9.01 µM,0.034 µM
LLWQPIPV,4.25 µM,2.44 µM,32.9 µM,0.0099 µM,0.137 µM,,,,,
LQLPPLERLTV,,,,,,0.052 µM,4.54 µM,> 61.1 µM,6.27 µM,0.159 µM
LTFGWCFKV,,,,,,0.187 µM,0.033 µM,0.0097 µM,1.17 µM,0.015 µM

Compound,IC50 (HLA-A*0206; [1]),IC50 (HLA-A*0202; [2]),IC50 (HLA-A*6802; [3]),IC50 (HLA-A*0203; [4]),IC50 (HLA-A*0201; [5]),IC50 (HLA-A*0206),IC50 (HLA-A*0202),IC50 (HLA-A*6802),IC50 (HLA-A*0203),IC50 (HLA-A*0201)
MLLSVPLLL,0.0084 µM,0.079 µM,24.6 µM,0.041 µM,0.009 µM,,,,,
MMIMIKFMGV,0.109 µM,0.019 µM,0.039 µM,0.025 µM,0.123 µM,,,,,
MTGNPPVPV,0.035 µM,0.158 µM,0.00084 µM,0.023 µM,2.02 µM,,,,,
MTGNPSIPV,,,,,,0.257 µM,0.0011 µM,0.00057 µM,0.00043 µM,0.016 µM
MTSNPPIPV,0.25 µM,0.016 µM,0.0038 µM,0.00039 µM,0.053 µM,,,,,
MTSNPPVPV,0.081 µM,0.029 µM,0.0011 µM,0.0008 µM,0.022 µM,,,,,
PVPLQLPPV,,,,,,0.081 µM,> 7.34 µM,> 15.6 µM,12.6 µM,10 µM
QLFEDKYAL [QLFEDKYAL],2.01 µM,0.0018 µM,2.98 µM,0.38 µM,0.646 µM,,,,,
QLVGPGPGMEV,0.919 µM,0.017 µM,0.223 µM,0.019 µM,0.865 µM,,,,,
RTLHDLCQA,0.096 µM,0.034 µM,61.6 µM,0.678 µM,8.12 µM,,,,,
SLLGPGPGAV,0.642 µM,0.017 µM,0.795 µM,0.0026 µM,0.095 µM,,,,,
SLLNGPGPGV,0.063 µM,0.0038 µM,0.045 µM,0.014 µM,0.065 µM,,,,,
TLGPGPGHL,12.1 µM,0.035 µM,27.9 µM,0.066 µM,15 µM,,,,,
VLAEAMATA,0.0086 µM,0.0014 µM,0.033 µM,0.00073 µM,0.0067 µM,,,,,
VLAEAMSKV,0.093 µM,0.0018 µM,0.329 µM,0.0014 µM,0.23 µM,,,,,
VLAEAMSQT,,,,,,0.236 µM,0.0022 µM,0.447 µM,0.00065 µM,0.29 µM
VLAEAMSRA,,,,,,0.02 µM,0.00088 µM,0.229 µM,0.001 µM,0.127 µM
VLAGPGPGVTL,7.2 µM,0.0024 µM,2.64 µM,0.094 µM,1.12 µM,,,,,
VLAKEGPGPGL,59 µM,0.0069 µM,51 µM,0.037 µM,1.89 µM,,,,,
VLFLQMMNV,0.0095 µM,0.0018 µM,0.323 µM,0.0027 µM,0.031 µM,,,,,
VLRLFVCFLI,68.2 µM,2.11 µM,45.6 µM,0.299 µM,2.74 µM,,,,,
VLVHPQWVV,3.22 µM,0.065 µM,14.6 µM,1.99 µM,0.464 µM,,,,,
VVQAGFFLV,0.081 µM,0.079 µM,0.617 µM,2.5 µM,0.44 µM,,,,,
WLNYTPGPGT,,,,,,> 31.6 µM,0.124 µM,11.8 µM,0.231 µM,0.547 µM
WLSGPGPGV,0.885 µM,0.0025 µM,0.024 µM,0.012 µM,0.22 µM,,,,,
